The source made the active and inactive calls. No rule for the calls is given here.
Target: Sphingosine 1-phosphate receptor 1 (Homo sapiens) (UniProt P21453)
Experiment: S1P1 receptor agonists, dose response, cell-based, agonist mode, 60K MLSMR set (AID 468)
Conditions: S1P1 agonist cell-based assay, activation

Chain of Sphingosine 1-phosphate receptor 1 (Homo sapiens) (P21453 whole entry, looked up): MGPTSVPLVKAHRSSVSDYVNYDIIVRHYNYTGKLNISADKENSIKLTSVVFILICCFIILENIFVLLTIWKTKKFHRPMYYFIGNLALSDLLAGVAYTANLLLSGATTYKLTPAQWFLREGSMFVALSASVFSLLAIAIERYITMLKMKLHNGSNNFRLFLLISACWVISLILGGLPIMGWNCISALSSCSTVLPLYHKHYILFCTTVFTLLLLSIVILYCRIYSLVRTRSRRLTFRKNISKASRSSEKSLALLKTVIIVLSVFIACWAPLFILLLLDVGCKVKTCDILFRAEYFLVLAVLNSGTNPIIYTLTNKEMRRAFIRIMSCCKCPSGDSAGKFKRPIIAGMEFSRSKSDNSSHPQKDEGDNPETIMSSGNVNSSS

Row | SMILES | EC50
1 | C/C(N)=C(/C#N)C(=O)CSc1nnc(SCc2ccc(Cl)cc2)s1 | 8.95 µM
2 | CCC(=NC(C)c1ccccc1)c1c(O)n(C)c(=O)n(C)c1=O (stereo not drawn) | inactive
3 | COc1ccc(N2C(=O)CC(Sc3ncn[nH]3)C2=O)c(OC)c1 (stereo not drawn) | inactive
4 | CCOc1ccc(C(C)=O)cc1N1C(=O)C2C3C=CC(O3)C2C1=O (stereo not drawn) | inactive
5 | COC(=O)CC1SC(=O)NC1=Nc1ccccc1 (stereo not drawn) | > 95 µM (inactive)
6 | C/C(N)=C(/C#N)C(=O)CSc1nc2cc(Cl)ccc2s1 | inactive
7 | CC1(C)CC(=O)C(C=Nc2ccc3[nH]ncc3c2)=C(O)C1 | 5.07 µM
8 | CCCCc1ccc(C2C(C#N)=C(N)SC(N)=C2C#N)s1 | inactive
9 | CCC(=NCc1ccc2c(c1)OCO2)c1c(O)n(C2CCCCC2)c(=O)[nH]c1=O | 6.81 µM
10 | CCOC(=O)c1cccc2c1-c1ccccc1/C2=N/O | inactive
11 | CC(=O)Oc1ccc(N2C(=O)C3C(C2=O)C2(C)C=CC3(C)O2)cc1 (stereo not drawn) | inactive
12 | CC1=C(C(=O)OCc2ccc3c(c2)OCO3)C(c2ccccc2)NC(=O)N1 (stereo not drawn) | 1.84 µM
13 | CCC(=NCCOc1ccc(Cl)cc1)c1c(O)n(C)c(=O)n(C)c1=O | 5.04 µM
14 | COc1ccc(/C=N/O)cc1COc1ccc(NC(C)=O)cc1 | > 95 µM (inactive)
15 | COc1ccc(/C(O)=C2/C(=O)C(=O)N(CC3CCCO3)C2c2cccc(OC)c2)cc1 (stereo not drawn) | > 95.1 µM (inactive)
16 | Cc1[nH]nc2c1C1(C(=O)N(Cc3ccc(Cl)cc3)c3ccccc31)C(C#N)=C(N)O2 (stereo not drawn) | inactive
17 | CC1=C(C(=O)OCc2ccc3c(c2)OCO3)C(c2ccc(F)cc2)NC(=O)N1 (stereo not drawn) | 0.437 µM
18 | O=C1C2C3C=CC(CO)(O3)C2C(=O)N1c1ccccc1-c1ccccc1 (stereo not drawn) | 5.47 µM

— PubChem BioAssay AID468 (The Scripps Research Institute Molecular Screening Center, 2006)
